Experimental data published in ChEMBL document CHEMBL1146839, “Orally active amino functionalized antimalarial 1,2,4-trioxanes” (Bioorg Med Chem Lett, 2004).
Calls of active or inactive are those of the source. No cut-off for these calls is given here.

What was measured:
[1] = Number of survivals against Plasmodium yoelii in mice (Mus musculus) (out of 5) at 96 mg/kg/day orally on day 28; assay type: organism-based; set-up: route oral; conditions: in vivo, po
[2] = test system: Mus musculus; test: Mean survival time against Plasmodium yoelii in mice (Mus musculus) which died during 28-day observation period at 96 mg/kg/day orally; assay type: functional; conditions: route oral
[3] = Number of survivals against Plasmodium yoelii in mice (Mus musculus) (out of 5) at 96 mg/kg/day intramuscularly on day 28; assay type: organism-based; set-up: route intramuscular; conditions: in vivo, im
[4] = test system: Mus musculus; test: In vivo antimalarial activity against Plasmodium yoelii in mice (Mus musculus) at 96 mg/kg/day orally on day 4 expressed as percent suppression; assay type: functional; conditions: route oral
[5] = test system: Mus musculus; test: Mean survival time against Plasmodium yoelii in mice (Mus musculus) which died during 28-day observation period at 96 mg/kg/day intramuscularly; assay type: functional; conditions: route intramuscular
[6] = test system: Mus musculus; test: In vivo antimalarial activity against Plasmodium yoelii in mice (Mus musculus) at 96 mg/kg/day intramuscularly on day 4 expressed as percent suppression; assay type: functional; conditions: route intramuscular
[7] = test system: Mus musculus; test: In vivo antimalarial activity against Plasmodium yoelii in mice (Mus musculus) at 24 mg/kg/day orally on day 4 expressed as percent suppression; assay type: functional; conditions: route oral
[8] = test system: Mus musculus; test: In vivo antimalarial activity against Plasmodium yoelii in mice (Mus musculus) at 48 mg/kg/day orally on day 4 expressed as percent suppression; assay type: functional; conditions: route oral
[9] = Number of survivals against Plasmodium yoelii in mice (Mus musculus) (out of 5) at 24 mg/kg/day orally on day 28; assay type: organism-based; set-up: route oral; conditions: in vivo, po
[10] = test system: Mus musculus; test: Mean survival time against Plasmodium yoelii in mice (Mus musculus) which died during 28-day observation period at 24 mg/kg/day orally; assay type: functional; conditions: route oral
[11] = test system: Mus musculus; test: Mean survival time against Plasmodium yoelii in mice (Mus musculus) which died during 28-day observation period at 48 mg/kg/day orally; assay type: functional; conditions: route oral
[12] = Number of survivals against Plasmodium yoelii in mice (Mus musculus) (out of 5) at 48 mg/kg/day orally on day 28; assay type: organism-based; set-up: route oral; conditions: in vivo, po
[13] = test system: Mus musculus; test: Percent suppression against Plasmodium yoelii in mice (Mus musculus) at 96 mg/kg/day intramuscularly on day 4; assay type: functional; conditions: route intramuscular
[14] = test system: Mus musculus; test: Percent suppression against Plasmodium yoelii in mice (Mus musculus) at 24 mg/kg/day orally on day 4; assay type: functional; conditions: route oral
[15] = test system: Mus musculus; test: In vivo antimalarial activity against Plasmodium yoelii in mice (Mus musculus) at 96 mg/kg/day intramuscularly on day 4 expressed as percent suppression; No suppression; assay type: functional, organism-based

Structure (SMILES) | No. of survivals [1] | MST [2] | No. of survivals [3] | Suppression [4] | MST [5] | Suppression [6] | Suppression [7] | Suppression [8] | No. of survivals [9] | MST [10] | MST [11] | No. of survivals [12] | Suppression [13] | Suppression [14] | Suppression [15]
C=C(c1ccc(-c2ccccc2)cc1)C1COC2(CCC(Nc3cc(Cl)cc(Cl)c3)CC2)OO1 (stereo not given) | 0 | 10.2 days | 0 | 65% | 7 days | 46% |  |  |  |  |  |  |  |  | 
CCO[C@H]1O[C@@H]2O[C@@]3(C)CC[C@H]4[C@H](C)CC[C@@H]([C@H]1C)[C@@]24OO3 [ARTEMOTIL] |  |  |  |  |  |  | 100% | 100% | 1 | 17.75 days | >28 days | 5 |  |  | 
C=C(c1ccc(-c2ccccc2)cc1)C1COC2(CCC(Nc3ccc(NC(C)=O)cc3)CC2)OO1 (stereo not given) | 0 | 8.4 days | 0 | 49% | 11.6 days | 90% |  |  |  |  |  |  |  |  | 
C=C(c1ccccc1)C1COC2(CCC(Nc3ccccc3)CC2)OO1 (stereo not given) | 0 | 12.2 days | 0 | 95% | 13.4 days | 60% |  |  |  |  |  |  |  |  | 
C=C(c1ccc(-c2ccccc2)cc1)C1COC2(CCC(Nc3ccccc3)CC2)OO1 (stereo not given) | 5 | >28 days | 0 | 100% | 10.7 days |  |  | 100% | 0 | 13.4 days | 14.5 days | 3 | 72% | 98% | 
C=C(c1ccc(-c2ccccc2)cc1)C1COC2(CCC(Nc3cccc4ccccc34)CC2)OO1 (stereo not given) | 0 | 14.8 days | 0 | 100% | 6.6 days |  |  |  |  |  |  |  |  |  | inactive
C=C(c1ccccc1)C1COC2(CCC(Nc3ccc(NC(C)=O)cc3)CC2)OO1 (stereo not given) | 0 | 9.8 days | 0 | 77% | 9 days | 98% |  |  |  |  |  |  |  |  | 
C=C(c1ccccc1)C1COC2(CCC(=O)CC2)OO1 (stereo not given) | 0 | 7.2 days | 0 | 7% | 11.6 days | 99% |  |  |  |  |  |  |  |  | 
C=C(c1ccccc1)C1COC2(CCC(Nc3cccc4ccccc34)CC2)OO1 (stereo not given) | 0 | 19.5 days | 0 | 100% | 9.2 days | 44% |  |  |  |  |  |  |  |  | 
C=C(c1ccccc1)C1COC2(CCC(Nc3cc(Cl)cc(Cl)c3)CC2)OO1 (stereo not given) | 2 | 16.5 days | 0 | 100% | 12.4 days | 62% |  |  |  |  |  |  |  |  | 
C=C(c1ccc(-c2ccccc2)cc1)C1COC2(CCC(=O)CC2)OO1 (stereo not given) | 0 | 10.2 days | 1 | 92% | 17.7 days | 100% |  |  |  |  |  |  |  |  | 
C=C(c1ccccc1)C1COC2(CCC(Nc3ccc(OC)cc3)CC2)OO1 (stereo not given) | 0 | 12.4 days | 0 | 93% | 10.8 days | 63% |  |  |  |  |  |  |  |  | 
C=C(c1ccc(-c2ccccc2)cc1)C1COC2(CCC(Nc3ccc(OC)cc3)CC2)OO1 (stereo not given) | 0 | 11.1 days | 0 | 94% | 8.4 days | 57% |  |  |  |  |  |  |  |  | 
CCN(CC)CCCC(C)Nc1ccnc2cc(Cl)ccc12 (stereo not given) [CHLOROQUINE] |  |  |  |  |  |  | 100% | 100% | 0 | 14.8 days | 17.6 days | 2 |  |  | 
